Assays:
Experiment in all cases: relative viability (nuclei count vs DMSO), 5 days (fraction); higher = more cells survive
Vemurafenib + Crizotinib = compound: CCCS(=O)(=O)Nc1ccc(F)c(C(=O)c2c[nH]c3ncc(-c4ccc(Cl)cc4)cc23)c1F [Vemurafenib] + C[C@@H](Oc1cc(-c2cnn(C3CCNCC3)c2)cnc1N)c1c(Cl)ccc(F)c1Cl [Crizotinib] (partner 1 µM)
Summary of the method: (§1)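 Each reported value is a median over duplicate plates. It expresses relative viability: treated-well nuclei count divided by vehicle-well nuclei count. Lung cancer cell lines in 1536-well plates were dosed by pin tool a day after seeding, alone with one drug or with a fixed anchor-drug dose plus five library-drug doses (not always all listed) in √10 steps, and nuclei were counted after 5 days.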

Alpelisib + Palbociclib = compound: Cc1nc(NC(=O)N2CCC[C@H]2C(N)=O)sc1-c1ccnc(C(C)(C)C(F)(F)F)c1 [Alpelisib] + CC(=O)c1c(C)c2cnc(Nc3ccc(N4CCNCC4)cn3)nc2n(C2CCCC2)c1=O [Palbociclib] (partner 0.5 µM)
Summary of the method: as §1

Alpelisib + Phenformin = compound: Cc1nc(NC(=O)N2CCC[C@H]2C(N)=O)sc1-c1ccnc(C(C)(C)C(F)(F)F)c1 [Alpelisib] + N=C(N)NC(=N)NCCc1ccccc1 [Phenformin] (partner 250 µM)
Summary of the method: as §1

Alpelisib + Decitabine = compound: Cc1nc(NC(=O)N2CCC[C@H]2C(N)=O)sc1-c1ccnc(C(C)(C)C(F)(F)F)c1 [Alpelisib] + Nc1ncn([C@H]2C[C@H](O)[C@@H](CO)O2)c(=O)n1 [Decitabine] (partner 2 µM)
Summary of the method: as §1

Cell Line | relative viability (Vemurafenib + Crizotinib; first compound 0.03162 µM) | relative viability (Vemurafenib + Crizotinib; first compound 0.1 µM) | relative viability (Vemurafenib + Crizotinib; first compound 0.3162 µM) | relative viability (Vemurafenib + Crizotinib; first compound 1 µM) | relative viability (Alpelisib + Palbociclib; first compound 0.04 µM) | relative viability (Alpelisib + Palbociclib; first compound 0.1265 µM) | relative viability (Alpelisib + Palbociclib; first compound 0.4 µM) | relative viability (Alpelisib + Palbociclib; first compound 1.265 µM) | relative viability (Alpelisib + Palbociclib; first compound 4 µM) | relative viability (Alpelisib + Phenformin; first compound 0.04 µM) | relative viability (Alpelisib + Phenformin; first compound 0.1265 µM) | relative viability (Alpelisib + Phenformin; first compound 0.4 µM) | relative viability (Alpelisib + Phenformin; first compound 1.265 µM) | relative viability (Alpelisib + Phenformin; first compound 4 µM) | relative viability (Alpelisib + Decitabine; first compound 0.04 µM) | relative viability (Alpelisib + Decitabine; first compound 0.1265 µM) | relative viability (Alpelisib + Decitabine; first compound 0.4 µM) | relative viability (Alpelisib + Decitabine; first compound 1.265 µM) | relative viability (Alpelisib + Decitabine; first compound 4 µM)
NCI-H1299 | 0.951 | 0.929 | 0.9 | 0.94 | – | – | – | – | – | – | – | – | – | – | – | – | – | – | –
LU99A | 0.531 | 0.489 | 0.516 | 0.526 | 0.374 | 0.379 | 0.363 | 0.259 | 0.22 | 0.883 | 0.843 | 0.856 | 0.709 | 0.657 | 0.822 | 0.838 | 0.899 | 0.666 | 0.579
NCI-H2009 | 1.02 | 0.924 | 0.754 | 0.962 | 0.235 | 0.23 | 0.245 | 0.215 | 0.164 | 0.502 | 0.458 | 0.555 | 0.456 | 0.468 | 0.35 | 0.458 | 0.398 | 0.389 | 0.354
LCLC-97TM1 | 0.287 | 0.246 | 0.301 | 0.278 | 0.206 | 0.177 | 0.183 | 0.119 | 0.0948 | 0.493 | 0.439 | 0.385 | 0.248 | 0.19 | 0.232 | 0.222 | 0.213 | 0.191 | 0.177
NCI-H1915 | 0.874 | 0.908 | 0.853 | 0.769 | 0.555 | 0.531 | 0.573 | 0.474 | 0.471 | 0.361 | 0.378 | 0.389 | 0.346 | 0.347 | 0.267 | 0.285 | 0.255 | 0.265 | 0.251
NCI-H2342 | – | – | – | – | 0.57 | 0.509 | 0.518 | 0.467 | 0.414 | 0.606 | 0.587 | 0.559 | 0.519 | 0.439 | 0.697 | 0.666 | 0.701 | 0.711 | 0.503
EKVX | 0.842 | – | 1 | 0.968 | 0.349 | 0.325 | 0.386 | 0.313 | 0.242 | 0.234 | 0.229 | 0.253 | 0.225 | 0.192 | 0.313 | 0.17 | 0.389 | 0.312 | 0.283
HCC-78 | 0.315 | 0.277 | 0.376 | 0.333 | 0.521 | 0.545 | 0.479 | 0.459 | 0.43 | 0.708 | 0.54 | 0.708 | 0.471 | 0.428 | 0.705 | 0.67 | 0.657 | 0.562 | 0.533
A549 | 0.704 | 0.717 | 0.743 | 0.717 | – | – | – | – | – | 0.147 | 0.21 | 0.172 | 0.16 | 0.115 | 0.197 | 0.294 | 0.322 | 0.25 | 0.229
NCI-H2126 | 1.02 | 1.04 | 1.02 | 1.04 | 0.363 | 0.334 | 0.345 | 0.359 | 0.334 | 0.541 | 0.498 | 0.501 | 0.381 | 0.343 | 0.586 | 0.576 | 0.607 | 0.454 | 0.428
